Test results taken from patent US10869926B2, “Suppression of myeloid derived suppressor cells and immune checkpoint blockade” (The Johns Hopkins University, priority 2014, dated 2020).
Values joined by “and” are separate entries in the source; they are usually repeats but may differ in a detail not shown here. Identical values can stand only once.

How the values were obtained:
[1] = test system: MHC-I, B2M and TAP1 genes in CT26 cells; assay: RT-PCR of genes involved in MHC-I presentation; format: cell-based, murine; settings: CT26 cells cultured in vitro
Procedure: (§1) 5×10^6 CT26 or 4T1 cells were resuspended in 0.75 ml Trizol LS Reagent (Invitrogen Life Technologies) and 0.25 ml chloroform (Sigma-Aldrich). Samples were vortexed for 15 seconds and incubated for 10 minutes at 20° C. […] Samples were centrifuged at 12000 g for 10 minutes at 4° C. after 10 minute incubation at 20° C. The resulting pellets were air dried for less than 10 minutes and were resuspended with RNAse-free water (Invitrogen Life Technologies) for a final concentration of 500 ng/μl. PCR was performed using SuperScript III One-Step RT-PCR System with Platinum Taq DNA Polymerase (Invitrogen Life Technologies). Annealing temperature was set at 55° C. for H-2D(d), β2m and TAP1, and set at 60° C. for β-actin. […] The following […] used for RT-PCR: H-2D(d) Forward [NT] (SEQ ID NO: 1), H-2D(d) Reverse [NT] ID NO: 2), β2m Forward [NT] ID NO: 3), β2m Reverse [NT] ID NO: 4), TAP1 Forward [NT] ID NO: 5), TAP1 Reverse [NT] ID NO: 6), β-actin Forward [NT] ID NO: 7), β-actin Reverse [NT] ID NO: 8).

[2] = test system: MHC-I, B2M and TAP1 genes in 4T1 cells; assay: RT-PCR of genes involved in MHC-I presentation; format: cell-based, murine; settings: 4T1 cells cultured in vitro
Procedure: as §1

[3] = test system: 4T1 cells; assay: In vitro survival assay (WST-1); format: cell-based, murine; settings: 24 hours, 0 to 50 μM
Procedure: 4T1 (CRL-2539, murine breast tumor cells) and CT26 (CRL-2638, murine colorectal adenocarcinoma) were purchased from ATCC. Both tumor cell lines were grown in McCoy's 5A supplemented with 10% Fetal Bovine Serum at 37° C., 5% CO2.
MDSCs and CD8^+ T cells were plated on 96-well plate at 2×10^6 cells/ml in RPMI1640 medium supplemented with 10% FBS. CD8^+ T cell cultures were supplemented with recombinant interleukin-2 (Invitrogen Life Technologies) at 2000 U/ml. 4T1 cells in McCoy 5A supplemented with 10% FBS were plated on 96-well plate and cultured until they reached >70% confluency. Cells were cultured with entinostat, 5-azacytidine, or J32 at concentrations ranging from 0 μM to 50 μM for 24 hours at 37° C., 5% CO2. The proportion of viable cells was assessed by incubating the cells with 10% (v/v) Cell Proliferation Reagent WST-1 (Roche Applied Science) for 3 hours at 37° C. and measuring OD450 absorbance of the resulting formazan products.

[4] = test system: CD8+ T cells; assay: In vitro survival assay (WST-1); format: cell-based, mouse; settings: 24 hours, 0 to 50 μM
From the text: (§2) MDSCs from 4T1 tumor-bearing animals were isolated from spleens using Myeloid-Derived Suppressor Cell Isolation Kit, mouse (Miltenyi Biotec) and BD FACS Aria III cell sorter (BD Biosciences). CD8^+ cells were isolated from spleens of 4T1-bearing animals treated with anti-PD-1 and anti-CTLA-4 antibodies using CD8a^+ T Cell Isolation Kit II, mouse (Miltenyi Biotec) and BD FACS Aria III cell sorter (BD Biosciences). MDSC, Tregs, and CD8^+ T cells were isolated and cultured by following the manufacturer's protocols and published protocols (38, 39). The purity of G-MDSCs (CD11b^+Ly6G^+Ly6C^loF4/80^−MHC-II^−) and CD8^+ (CD3^+CD8^+) populations were greater than 95% as determined by flow cytometry, and the viability was greater than 95% for these populations as determined by trypan blue staining.
(§3) MDSCs and CD8^+ T cells were plated on 96-well plate at 2×10^6 cells/ml in RPMI1640 medium supplemented with 10% FBS. CD8^+ T cell cultures were supplemented with recombinant interleukin-2 (Invitrogen Life Technologies) at 2000 U/ml. […] The proportion of viable cells was assessed by incubating the cells with 10% (v/v) Cell Proliferation Reagent WST-1 (Roche Applied Science) for 3 hours at 37° C. and measuring OD450 absorbance of the resulting formazan products.

[5] = test system: G-MDSCs; assay: In vitro survival assay (WST-1); format: cell-based, mouse; settings: 24 hours, 0 to 50 μM
From the text: as §2, §3

[6] = mouse, in vivo
Procedure: Body weight measurements. BALB/c mice bearing 4T1 tumors were treated with indicated therapeutic modalities. Their body weights were measured and recorded regularly after treatments. Means and standard deviations of data are shown.
Six to eight weeks old female BALB/C mice (Harlan Laboratories) were used for all animal experiments. 5×10^6 4 T1 tumor cells or 5×10^6 CT26 tumor cells were inoculated subcutaneously into the right flank of each mouse. Tumors were allowed to grow for 11 days prior to randomization and treatment. CT26 bearing mice were given 10 mg/kg of anti-PD-1 and/or anti-CTLA-4 antibodies intraperitoneally on day 11, 13, 15, 17, 20, 23 and 26 post-tumor implantations and 4T1 bearing mice were given 10 mg/kg anti-PD-1 and/or anti-CTLA-4 antibodies intraperitoneally on day 11, 13, 15, and 17 post-tumor implantations. 4T1 tumor bearing mice were given a single dose of 10 mg/kg anti-CD25 antibody or 10 mg/kg anti-Ly6G antibody intraperitoneally on day 12 post-tumor implantation for cell depletion studies. All antibodies were diluted to appropriate concentrations in 100 μl sterile PBS, pH 7.4 (Invitrogen Life Technologies). […] 4T1 bearing mice were injected intraperitoneally on day 12, 14, 16, and 18. […] Tumor volume was calculated as length×width×0.5.

[7] = test system: 4T1 tumors; assay: 4T1 primary tumors and metastatic lesions (metastasis analysis); format: in vivo, BALB/c mice; settings: for metastases (in words) / primary tumors (in words): 4T1, sacrificed six weeks after tumor implantation; for Liver Mets / Lung Mets / Primary Tumor Vol (mm^3) / Spleen Mets: six weeks after tumor implantation
Procedure: Tumor volume was calculated as length×width×0.5.
On day 46 post-tumor implantations, 4T1 tumor bearing mice were euthanized according to the IACUC guidelines. Lungs, livers and spleens were harvested and fixed in 10% Neutral Buffered Formalin Solution (Sigma-Aldrich) and metastatic nodules were counted from at least three mice per group.

[8] = test system: G-MDSCs; assay: Flow cytometry of G-MDSCs in 4T1 tumor-bearing mice; format: in vivo, BALB/c mice; settings: added to / in combination with PD-1/CTLA-4 inhibition
From the text: The following antibodies and reagents were used for flow cytometry: CD16/32 (BD Biosciences), CD3e Alexa Fluor 488 (14-C11; BD Biosciences), CD4 Brilliant Violet 421 (GK1.5, BD Biosciences), CD8a PerCP-Cy5.5 (53-6.7, BD Biosciences), CD25 PE (PC61, BD Biosciences), Foxp3 Alexa Fluor 647 (MF23, BD Biosciences), CD11b Alexa Fluor 700 (M1/70, BD Biosciences), I-A/I-E Alexa Fluor 488 (M5/114.15.2, BD Biosciences), Ly-6C PerCP-Cy5.5 (AL-21, BD Biosciences), CD11c PE (HL3, BD Biosciences), F4/80 APC (BM8, Biolegend), Ly-6G Pacific Blue (1A8, Biolegend), CD45 Pacific Orange (30-F11, Invitrogen Life Technologies), and Live/Dead Fixable Near IR Dead Cell Stain (Invitrogen Life Technologies). Flow cytometry was performed with LSR II (BD Biosciences) and the data was analyzed with FACS Diva software (BD Biosciences). To assess the level of circulating G-MDSC population, blood samples were collected from the mice 7 days after the initiation of the anti-PD-1/anti-CTLA-4 antibody treatments with or without 5-AZA/Entinostat. […] CD8^+ T cell level was assessed using previously established phenotypic criteria of CD45^+CD3^+CD8^+ and total CD45^+CD3^+ cells was used as a common denominator. Treg cell level was assessed using previously established phenotypic criteria of CD45^+CD3^+CD4^+CD25^+FoxP3^+ and total CD45^+CD3^+CD4^+ cells were used as a common denominator.

[9] = test system: IFN-γ secretion in co-cultures of G-MDSCs and CD8+ T cells; assay: IFN-γ assay in G-MDSC / CD8+ T cell co-cultures (ELISA); format: cell-based, mouse; settings: G-MDSC to CD8+ T cell ratio 1:1, 24 hours, 0 to 0.25 μM
Procedure: Freshly isolated MDSCs and CD8^+ T cells from 4T1 tumor-bearing animals were cultured at MDSC to CD8^+ T cell ratios of 5:1, 2:1, 1:1, 1:2, and 1:5 in presence of recombinant IL-2 (Invitrogen Life Technologies) at 2000 U/mL and CD3/CD28 antibody coated beads (Miltenyi). MDSC and CD8^+ T cells were cultured at 1:1 ratio with entinostat at concentrations ranging from 0 μM to 0.25 μM. Cell-free supernatants were collected after 24-hour incubation at 37° C. and IFN-γ levels were assayed using Mouse IFN-γ DuoSet Elisa Development Kit (R&D Systems) according to the manufacturer's instruction.

[10] = individual mouse, listed as ENT

| Compound | expression of MHC-I, B2M and TAP1 genes [1] | expression of MHC-I, B2M and TAP1 genes [2] | cell viability [3] | cell viability [5] | metastases (in words) [7] | primary tumors (in words) [7] | Liver Mets ([7]; AVERAGE of group) | Lung Mets ([7]; AVERAGE of group) | Primary Tumor Vol (mm^3) ([7]; AVERAGE of group) | Spleen Mets ([7]; AVERAGE of group) | also measured |
| --- | --- | --- | --- | --- | --- | --- | --- | --- | --- | --- | --- |
| Nc1ccccc1NC(=O)c1ccc(CNC(=O)OCc2cccnc2)cc1 [entinostat] | did not significantly increase the expression | did not significantly increase the expression | unresponsive | markedly reduced viability | unable to eradicate either primary tumor or metastasis | unable to eradicate either primary tumor or metastasis | 4 | 17 | 3483 mm^3 | 1 | cell viability [4]: only modest effects; toxicity as indicated by body weight changes [6]: Temporary self-limiting toxicity; Liver Mets [7, 10]: 10 and 3 and 0 (2×) and 6; Lung Mets [7, 10]: 25 and 20 (2×) and 0 and 22; Primary Tumor Vol (mm^3) [7, 10]: 3005 mm^3 and 5038 mm^3 and 2275 mm^3 and 3063 mm^3 and 4032 mm^3; Spleen Mets [7, 10]: 1 and 0 (3×) and 3; number of circulating G-MDSCs [8]: striking reduction in the number of circulating G-MDSCs; IFN-γ secretion inhibited by G-MDSCs [9]: reversed the inhibition in a dose-dependent manner |
| Nc1ncn([C@@H]2O[C@H](CO)[C@@H](O)[C@H]2O)c(=O)n1 [AZA, 5-azacytidine] | did not significantly increase the expression | did not significantly increase the expression | unresponsive | no effect at comparable concentrations | unable to eradicate either primary tumor or metastasis | unable to eradicate either primary tumor or metastasis | 12 | 17 | 2750 mm^3 | 1 | Liver Mets ([7]; individual mouse): 0 (3×) and 43 and 16; Lung Mets ([7]; individual mouse): 20 (2×) and 16 and 17 and 14; Primary Tumor Vol (mm^3) ([7]; individual mouse): 2345 mm^3 and 2454 mm^3 and 2477 mm^3 and 4358 mm^3 and 2117 mm^3; Spleen Mets ([7]; individual mouse): 0 (3×) and 3 and 1 |
